The test has as its target human NEP (Homo sapiens (Human), UniProt P08473). Kind of test: In vitro enzyme inhibition assay at human NEP. The note with it: recombinant human NEP, fluorogenic peptide substrate, 37° C.; for Ki: pKi.

In general, Ki refers to the equilibrium dissociation constant of an inhibitor or competing ligand from its target.

Sequence of human NEP (P08473 52-750): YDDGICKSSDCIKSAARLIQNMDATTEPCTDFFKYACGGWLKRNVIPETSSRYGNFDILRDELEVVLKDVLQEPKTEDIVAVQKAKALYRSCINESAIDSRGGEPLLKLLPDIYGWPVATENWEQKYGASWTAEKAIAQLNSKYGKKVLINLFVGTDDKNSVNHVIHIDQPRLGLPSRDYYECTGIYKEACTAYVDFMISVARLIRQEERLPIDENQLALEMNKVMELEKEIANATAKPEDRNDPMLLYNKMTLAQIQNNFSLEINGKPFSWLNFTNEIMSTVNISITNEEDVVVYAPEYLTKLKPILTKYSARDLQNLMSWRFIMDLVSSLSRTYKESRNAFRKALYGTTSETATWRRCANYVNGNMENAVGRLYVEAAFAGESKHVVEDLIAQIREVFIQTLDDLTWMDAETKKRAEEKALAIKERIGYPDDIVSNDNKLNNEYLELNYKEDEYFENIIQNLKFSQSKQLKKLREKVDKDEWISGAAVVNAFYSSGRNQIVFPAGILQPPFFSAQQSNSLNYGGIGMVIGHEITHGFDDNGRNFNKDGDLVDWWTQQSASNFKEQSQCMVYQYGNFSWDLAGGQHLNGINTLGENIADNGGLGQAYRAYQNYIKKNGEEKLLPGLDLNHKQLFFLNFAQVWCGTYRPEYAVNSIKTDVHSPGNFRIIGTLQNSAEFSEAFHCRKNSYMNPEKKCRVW

Take `O=C(N[C@H](Cc1ccc(-c2cc(Cl)ccc2F)cc1)C[C@@H](CN1CCC1)C(=O)O)c1cnn[nH]1` [Example 84b, (2S,4S)-2-Azetidin-1-ylmethyl-5-(5′-chloro-2′-fluorobiphenyl-4-yl)-4-[(3H-[1,2,3]triazole-4-carbonyl)amino]pentanoic Acid]: the Ki was at most 1 nM.

For the molecule `COCCN(C)C[C@H](C[C@@H](Cc1ccc(-c2cc(Cl)ccc2F)cc1)NC(=O)c1cnn[nH]1)C(=O)O` [Example 85a, (2S,4S)-5-(5′-Chloro-2′-fluorobiphenyl-4-yl)-2-{[(2-methoxyethyl)methylamino]methyl}-4-[(3H-[1,2,3]triazole-4-carbonyl)amino]pentanoic Acid], the Ki was at most 1 nM.

On to `O=C(N[C@H](Cc1ccc(-c2cc(Cl)ccc2F)cc1)C[C@@H](CNCCCO)C(=O)O)c1cnn[nH]1` [Example 87b, (2S,4S)-5-(5′-Chloro-2′-fluorobiphenyl-4-yl)-2-[(3-hydroxypropylamino)methyl]-4-[(3H-[1,2,3]triazole-4-carbonyl)amino]pentanoic Acid], for which the Ki was at most 1 nM.

On to `N#CC1CN(C[C@H](C[C@@H](Cc2ccc(-c3cc(Cl)ccc3F)cc2)NC(=O)c2cnn[nH]2)C(=O)O)C1` [Example 88b, (2S,4S)-5-(5′-Chloro-2′-fluorobiphenyl-4-yl)-2-(3-cyanoazetidin-1-ylmethyl)-4-[(3H-[1,2,3]triazole-4-carbonyl)amino]pentanoic Acid], for which the Ki is at most 1 nM.

`CC1(C)CN(C[C@H](C[C@@H](Cc2ccc(-c3cc(Cl)ccc3F)cc2)NC(=O)c2cnn[nH]2)C(=O)O)C1` [Example 89b, (2S,4S)-5-(5′-Chloro-2′-fluorobiphenyl-4-yl)-2-(3,3-dimethylazetidin-1-ylmethyl)-4-[(3H-[1,2,3]triazole-4-carbonyl)amino]pentanoic Acid]: the Ki is at most 1 nM.

Take `O=C(N[C@H](Cc1ccc(-c2cc(Cl)ccc2F)cc1)C[C@@H](CN1CC(F)(F)C1)C(=O)O)c1cnn[nH]1` [Example 90b, (2S,4S)-5-(5′-Chloro-2′-fluorobiphenyl-4-yl)-2-(3,3-difluoroazetidin-1-ylmethyl)-4-[(3H-[1,2,3]triazole-4-carbonyl)amino]pentanoic Acid]: the Ki was at most 1 nM.

As for `O=C(N[C@H](Cc1ccc(-c2cc(Cl)ccc2F)cc1)C[C@@H](CN1CC(F)C1)C(=O)O)c1cnn[nH]1` [Example 91b, (2S,4S)-5-(5′-Chloro-2′-fluorobiphenyl-4-yl)-2-(3-fluoroazetidin-1-ylmethyl)-4-[(3H-[1,2,3]triazole-4-carbonyl)amino]pentanoic Acid], the Ki is at most 1 nM.

For `O=C(N[C@H](Cc1ccc(-c2cc(Cl)ccc2F)cc1)C[C@@H](CN1CC(CO)(CO)C1)C(=O)O)c1cnn[nH]1` [Example 92b, (2S,4S)-2-(3,3-Bis-hydroxymethylazetidin-1-ylmethyl)-5-(5′-chloro-2′-fluorobiphenyl-4-yl)-4-[(3H-[1,2,3]triazole-4-carbonyl)amino]pentanoic Acid], the Ki was at most 1 nM.

In the case of `O=C(N[C@H](Cc1ccc(-c2cc(Cl)ccc2F)cc1)C[C@@H](CN1CC(CO)C1)C(=O)O)c1cnn[nH]1` [Example 93b, (2S,4S)-5-(5′-Chloro-2′-fluorobiphenyl-4-yl)-2-(3-hydroxymethyl-azetidin-1-ylmethyl)-4-[(3H-[1,2,3]triazole-4-carbonyl)amino]pentanoic Acid], the Ki is at most 1 nM.

For the molecule `O=C(N[C@H](Cc1ccc(-c2cc(Cl)ccc2F)cc1)C[C@@H](CN1CC[C@@H]1CO)C(=O)O)c1cnn[nH]1` [Example 94b], the Ki is at most 1 nM.

Consider `O=C(N[C@H](Cc1ccc(-c2cc(Cl)ccc2F)cc1)C[C@@H](CN1CC[C@H]1CO)C(=O)O)c1cnn[nH]1` [Example 95b, (2S,4S)-5-(5′-Chloro-2′-fluorobiphenyl-4-yl)-2-((S)-2-hydroxymethyl-azetidin-1-ylmethyl)-4-[(3H-[1,2,3]triazole-4-carbonyl)amino]pentanoic Acid], for which the Ki was at most 1 nM.

As for `NC(=O)C1CN(C[C@H](C[C@@H](Cc2ccc(-c3cc(Cl)ccc3F)cc2)NC(=O)c2cnn[nH]2)C(=O)O)C1` [Example 96b, (2S,4S)-2-(3-Carbamoylazetidin-1-ylmethyl)-5-(5′-chloro-2′-fluorobiphenyl-4-yl)-4-[(3H-[1,2,3]triazole-4-carbonyl)amino]pentanoic Acid], the pKi result is “≧9.0”.

With `COCCCN[C@H](C[C@@H](Cc1ccc(-c2cc(Cl)ccc2F)cc1)NC(=O)c1c[nH]nn1)C(=O)O` [Example 97a], the Ki was at most 1 nM.

With `COCCN[C@H](C[C@@H](Cc1ccc(-c2cc(Cl)ccc2F)cc1)NC(=O)c1c[nH]nn1)C(=O)O` [Example 98a, (2R,4R)-5-(5′-Chloro-2′-fluorobiphenyl-4-yl)-2-(2-methoxyethylamino)-4-[(1H-[1,2,3]triazole-4-carbonyl)amino]pentanoic Acid], the Ki is at most 1 nM.

As for `CN(C)CCOC[C@H](C[C@@H](Cc1ccc(-c2cc(Cl)ccc2F)cc1)NC(=O)c1c[nH]nn1)C(=O)O` [Example 100, (2S,4S)-5-(5′-Chloro-2′-fluorobiphenyl-4-yl)-2-(2-dimethylamino-ethoxymethyl)-4-[(1H-[1,2,3]triazole-4-carbonyl)amino]pentanoic Acid], the Ki is at most 1 nM.

With `CC1(O)CN(C[C@H](C[C@@H](Cc2ccc(-c3cc(Cl)ccc3F)cc2)NC(=O)c2c[nH]nn2)C(=O)O)C1` [Example 101b, (2S,4S)-5-(5′-Chloro-2′-fluorobiphenyl-4-yl)-2-(3-hydroxy-3-methylazetidin-1-ylmethyl)-4-[(1H-[1,2,3]triazole-4-carbonyl)amino]pentanoic Acid], the inhibition constant (Ki) was at most 1 nM.

With `CC1(O)CN(C[C@@H](C[C@@H](Cc2ccc(-c3cc(Cl)ccc3F)cc2)NC(=O)c2c[nH]nn2)C(=O)O)C1` [Example 101c, (2R,4S)-5-(5′-Chloro-2′-fluorobiphenyl-4-yl)-2-(3-hydroxy-3-methylazetidin-1-ylmethyl)-4-[(1H-[1,2,3]triazole-4-carbonyl)amino]pentanoic Acid], the Ki was in the range of 1.26 to 3.16 nM.

For the molecule `COC1CN(C[C@H](C[C@@H](Cc2ccc(-c3cc(Cl)ccc3F)cc2)NC(=O)c2c[nH]nn2)C(=O)O)C1` [Example 102b, (2S,4S)-5-(5′-Chloro-2′-fluorobiphenyl-4-yl)-2-(3-methoxyazetidin-1-ylmethyl)-4-[(1H-[1,2,3]triazole-4-carbonyl)amino]pentanoic Acid], the Ki was at most 1 nM.

Take `COC1CN(C[C@@H](C[C@@H](Cc2ccc(-c3cc(Cl)ccc3F)cc2)NC(=O)c2c[nH]nn2)C(=O)O)C1` [Example 102c, (2R,4S)-5-(5′-Chloro-2′-fluorobiphenyl-4-yl)-2-(3-methoxyazetidin-1-ylmethyl)-4-[(1H-[1,2,3]triazole-4-carbonyl)amino]pentanoic Acid]: the Ki was at most 1 nM.

As to `COC[C@H]1CCN1C[C@H](C[C@@H](Cc1ccc(-c2cc(Cl)ccc2F)cc1)NC(=O)c1c[nH]nn1)C(=O)O` [Example 103b, (2S,4S)-5-(5′-Chloro-2′-fluorobiphenyl-4-yl)-2-((R)-2-methoxymethylazetidin-1-ylmethyl)-4-[(3H-[1,2,3]triazole-4-carbonyl)amino]pentanoic Acid], the Ki was at most 1 nM.
